Measurements as given in article PMC10319809, “Chronic UCN2 treatment desensitizes CRHR2 and improves insulin sensitivity” (Nature Communications, 2023).
Where no end group is shown, it is not given here.

Experiments:
hCRHR2α Gq = target: T1, hCRHR2α Gq (Homo sapiens, UniProt Q13324); assay: ebBRET EMTA, Gq biosensor; assay type: cell-based; conditions: HEK293 cells, CRHR2a, n = 2 independent experiments
T1 construct: expressed in transfected cells; host or cells: HEK293 cells (Millipore Sigma), transient PEI co-transfection with biosensor plasmids at Domain Therapeutics
T1 sequence (Q13324 1-411): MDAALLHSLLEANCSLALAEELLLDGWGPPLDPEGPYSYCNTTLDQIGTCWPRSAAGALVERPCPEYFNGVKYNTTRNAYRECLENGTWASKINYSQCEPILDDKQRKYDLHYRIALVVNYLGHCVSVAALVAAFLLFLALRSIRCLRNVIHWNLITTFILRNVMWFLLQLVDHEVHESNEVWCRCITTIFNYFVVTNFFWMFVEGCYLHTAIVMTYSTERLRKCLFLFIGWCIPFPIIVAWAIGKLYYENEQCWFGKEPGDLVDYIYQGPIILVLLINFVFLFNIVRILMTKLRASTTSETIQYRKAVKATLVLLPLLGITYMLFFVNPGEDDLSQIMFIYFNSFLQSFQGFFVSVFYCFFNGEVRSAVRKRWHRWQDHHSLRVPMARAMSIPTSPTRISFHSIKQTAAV
Description: Typically, GPCR desensitization is carried out through the recruitment of β-Arrestins or alternative G-proteins to the receptor. To identify whether these proteins are recruited to CRHR2 in response to UCN2, enhanced bystander bioluminescence resonance energy transfer (ebBRET)-based effector membrane translocation assays (EMTA) were carried out in HEK293 cells[28],[29]. Cells were co-transfected with plasmids expressing unmodified CRHR2a (alpha isoform) and one of various pathway-specific biosensors. […]
Effector membrane translocation biosensor assays (bioSensAll®) were conducted at Domain Therapeutics NA Inc. (Montreal, QC, Canada) and described in cells[28],[29]. […] Briefly, DNA and PEI were diluted separately in 150 mM NaCl, mixed and then incubated for at least 20 min at room temperature (note: salmon sperm DNA (Invitrogen) was used to adjust the total amount of DNA transfected to a final quantity of 1 ug per mL of cell culture to be transfected). During the 20-minute incubation, HEK293 cells were detached, counted and resuspended into cell culture medium to a final density of 350,000 cells per mL. […] Cells were then incubated at room temperature for 10 min and BRET readings subsequently collected with a 0.4 s integration time on a Synergy NEO plate reader (BioTek Instruments, Inc., USA; filters: 400 nm/70 nm, 515 nm/20 nm). […]

[1] = system: AKT1S1, IRS1, AKT phosphorylation; assay: Ex vivo soleus muscle insulin signaling (Western blot); design: species or system mouse; conditions: 100 nM UCN2 pre-treatment, n = 2
Description: Soleus muscle was removed from fed animals anesthetized by an intraperitoneal injection of pentobarbital (10 mg/100 g body weight). Dissected soleus muscles were suspended at 5 mN of tension in incubation chambers (Model 610/820 M, Danish Myo-Technology, Denmark) containing Krebs-Ringer-Buffer supplemented with 0.1% BSA, 2 mM pyruvate and 8 mM Mannitol. During the entire incubation period the KRB was maintained at 30 °C and oxygenated with 95% O2 and 5% CO2. Following 10 min of pre-incubation muscles were incubated in Krebs buffer +/− 100 nM (−7.0 log[M]) UCN2. At the next time point, 30 min later, muscles were placed in baths containing Krebs buffer +/− 100 nM (−7.0 [M]) UCN2. At the next time point, 15 min later, muscles were placed in baths containing Krebs buffer +/− 100 nM (−7.0 log[M]) UCN2 + /− 60 nM Insulin (Actrapid, Novo Nordisk, Bagsvaerd, Denmark) for 15 min. For the ex vivo glucose uptake studies, 1 mM [^3H]2-deoxyglucose (Perkin-Elmer) and 7 mM [^14C]mannitol (Perkin-Elmer) was also added at this time. Muscles that were in saline in the first bath, saline in the second bath, and saline in the third bath were assigned to the SSS group. Muscles that were in saline in the first bath, saline in the second bath, and UCN2 in the third bath were assigned to the SSU group. […]

IVLSLDVPIGLLQILLEQARARAAREQATTNARILARVGHC-NH2 (C-terminus assumed) [UCN2, Urocortin 2]
Gq recruitment (hCRHR2α Gq): not recruited | AKT1S1, IRS1 and AKT phosphorylation after UCN2 pre-treatment ex vivo [1]: increased AKT1S1, IRS1, and AKT phosphorylation
